How the values were obtained:
Assay in all cases: cell viability (% survival relative to DMSO control, bortezomib = 0%); higher = less cytotoxic
Conditions in all cases: 72 h
BV-173 = tested on: BV-173
How it was run: (§1)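 Percent survival is reported as the mean of duplicate wells. Cells from 10 AML and 5 CML lines were plated in 384-well plates containing compounds at 1, 10, 100, 1000 or 10000 nM and kept for 72 h at 37 °C in 5% CO2. Readout used CellTiter-Glo luminescence, scaled so that vehicle equals 100% and a 10 µM positive control equals 0%.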

LAMA-84 = tested on: LAMA-84
How it was run: as §1

MV4-11 = tested on: MV4-11
How it was run: as §1

Mono-Mac-6 = tested on: Mono-Mac-6
How it was run: as §1

ML-2 = tested on: ML-2
How it was run: as §1

KCL-22 = tested on: KCL-22
How it was run: as §1

NOMO-1 = tested on: NOMO-1
How it was run: as §1

KU-812 = tested on: KU-812
How it was run: as §1

THP-1 = tested on: THP-1
How it was run: as §1

## CCCCC/C=C\C/C=C\C/C=C\C/C=C\CCCC(=O)C(F)(F)F [Arachidonyl trifluoromethyl ketone]
BV-173; 1 nM
  cell viability: 103%
BV-173; 10 nM
  cell viability: 96.6%
BV-173; 100 nM
  cell viability: 95.7%
BV-173; 1000 nM
  cell viability: 92%
BV-173; 10000 nM
  cell viability: 76.6%
LAMA-84; 1 nM
  cell viability: 106%
LAMA-84; 10 nM
  cell viability: 95.5%
LAMA-84; 100 nM
  cell viability: 77.6%
LAMA-84; 1000 nM
  cell viability: 85.8%
LAMA-84; 10000 nM
  cell viability: 79.5%
MV4-11; 1 nM
  cell viability: 99.4%
MV4-11; 10 nM
  cell viability: 99.8%
MV4-11; 100 nM
  cell viability: 101%
MV4-11; 1000 nM
  cell viability: 97.6%
MV4-11; 10000 nM
  cell viability: 85.9%
Mono-Mac-6; 1 nM
  cell viability: 98.5%
Mono-Mac-6; 10 nM
  cell viability: 97.9%
Mono-Mac-6; 100 nM
  cell viability: 102%
Mono-Mac-6; 1000 nM
  cell viability: 80.7%
Mono-Mac-6; 10000 nM
  cell viability: 57.7%
ML-2; 1 nM
  cell viability: 98.9%
ML-2; 10 nM
  cell viability: 98.3%
ML-2; 100 nM
  cell viability: 111%
ML-2; 1000 nM
  cell viability: 99.2%
ML-2; 10000 nM
  cell viability: 77.8%
KCL-22; 1 nM
  cell viability: 96.9%
KCL-22; 10 nM
  cell viability: 103%
KCL-22; 100 nM
  cell viability: 105%
KCL-22; 1000 nM
  cell viability: 97.2%
KCL-22; 10000 nM
  cell viability: 87.5%
NOMO-1; 1 nM
  cell viability: 90.4%
NOMO-1; 10 nM
  cell viability: 98.7%
NOMO-1; 100 nM
  cell viability: 92.1%
NOMO-1; 1000 nM
  cell viability: 84.5%
NOMO-1; 10000 nM
  cell viability: 79.9%
KU-812; 1 nM
  cell viability: 104%
KU-812; 10 nM
  cell viability: 86.9%
KU-812; 100 nM
  cell viability: 88.4%
KU-812; 1000 nM
  cell viability: 68.5%
KU-812; 10000 nM
  cell viability: 61.7%
THP-1; 1 nM
  cell viability: 95.2%
THP-1; 10 nM
  cell viability: 103%
THP-1; 100 nM
  cell viability: 94.1%
THP-1; 1000 nM
  cell viability: 87.5%
THP-1; 10000 nM
  cell viability: 61.1%

— the supplement of paper PMC8671470
